Measurements reported in ChEMBL document CHEMBL1139806, “Synthesis, anticancer, and cytotoxic activities of some mononuclear Ru(II) compounds” (Bioorg Med Chem, 2007).

Tests used:
Format in all cases: functional, cell-based
[1] = Cytotoxicity against human Molt 4/C8 cells; settings: Molt4/C8
CCRF-CEM = experiment: Cytotoxicity against human CEM cells
L1210 = experiment: Cytotoxicity against mouse L1210 cells

Question: Which IC50 [1] does the source give for `NC(=S)N/N=C/c1ccc(Cl)cc1` here?
Answer: 302 µM

Question: What about the IC50 (CCRF-CEM) of the same compound?
Answer: 194 µM

Question: And the IC50 (L1210)?
Answer: 284 µM

Question: What does the source list for `COc1ccc(/C=N/NC(N)=S)cc1`?
Answer: IC50 [1]: 196 µM; IC50 (CCRF-CEM): 158 µM; IC50 (L1210): 232 µM

Question: What does the source list for `Oc1ccccc1/C=N/c1ccc(F)c(Cl)c1`?
Answer: IC50 [1]: 112 µM; IC50 (CCRF-CEM): 100 µM; IC50 (L1210): 68 µM

Question: With `NC(=S)N/N=C/c1ccccc1Cl` as the compound, how does the IC50 [1] read?
Answer: 200 µM

Question: What about the IC50 (CCRF-CEM) of the same compound?
Answer: 98 µM

Question: And the IC50 (L1210)?
Answer: 84 µM

Question: For `NC(=S)/N=N/c1c(O)[nH]c2ccccc12`, which IC50 [1] is on record?
Answer: 405 µM

Question: What about the IC50 (CCRF-CEM) of the same compound?
Answer: 249 µM

Question: What about the IC50 (L1210) of the same compound?
Answer: 382 µM

Question: For `NC(=S)N/N=C/c1ccccc1F`, which IC50 [1] is on record?
Answer: 140 µM

Question: What about the IC50 (CCRF-CEM) of the same compound?
Answer: 166 µM

Question: And the IC50 (L1210)?
Answer: 242 µM
